pEC50: −log10 of the molar value.
Tests used:
[1] = test system: 9D cells (EBV-transformed human peripheral blood B cells); assay: Apoptosis by FACS (PI / FITC-annexin V), 9D cells; type: cell-based; conditions: 24 hours, CH11 1 μg/ml
Procedure: (§1) The effects of the Apo-2 ligand on the 9D cells, as well as on Raji cells (human Burkitt's lymphoma B cell line, ATCC CCL 86) and Jurkat cells (human acute T cell leukemia cell line, ATCC TIB 152) were further analyzed by FACS. The FACS analysis was conducted, using established criteria for apoptotic cell death, namely, the relation of fluorescence staining of the cells with two markers: (a) propidium iodide (“PI”) dye, which stains apoptotic but not live cells, and (b) a fluorescent derivative of the protein, annexin V, which binds to the exposed phosphatidylserine found on the surface of apoptotic cells, but not on live cells [Darzynkiewicz et al., Methods in Cell Biol., 41:15-38 (1994); Fadok et al., J. Immunol., 148:2207-2214 (1992); Koopman et al., Blood, 84:1415-1420 (1994)].
(§2) The 9D cells (FIG. 2B), Raji cells (FIG. 2C), and Jurkat cells (FIG. 2D) were incubated (1×10^6 cells/well) for 24 hours with a media control (left panels), Apo-2 ligand (3 μg/ml, prepared as described in Example 3) (center panels), or […], CH11 (1 μg/ml) (right panels). The cells were then washed, stained with PI and with […] (FITC)-conjugated annexin V (purchased from Brand Applications) and analyzed by flow cytometry. […]

[2] = test system: Raji cells (human Burkitt's lymphoma B cell line); assay: Apoptosis by FACS (PI / FITC-annexin V), Raji cells; type: cell-based; conditions: 24 hours, CH11 1 μg/ml
Procedure: as §1, §2

[3] = test system: Jurkat cells (human acute T cell leukemia cell line); assay: Apoptosis by FACS (PI / FITC-annexin V), Jurkat cells; type: cell-based; conditions: 24 hours, CH11 1 μg/ml
Procedure: as §1, §2

[4] = test system: HeLa (human cervical carcinoma); assay: Apoptosis by FACS, HeLa cells; type: cell-based
Procedure: as §2, with “cytometry. Cells negative for both PI and annexin V staining (quadrant 3) represent live cells; PI-negative, annexin V-positive staining cells (quadrant 4) represent early apoptotic cells; PI-positive, annexin V-positive staining cells (quadrant 2) represent primarily cells in late stages of apoptosis.” for “cytometry.”
(§3) In the assay, 1×10^6 cells of each cell line were incubated for 24 hours with a media control, Apo-2 ligand (3 μg/ml, prepared as described in Example 3), or anti-Apo-1 monoclonal antibody, CH11 (1 μg/ml). Following the incubation, apoptosis was measured by FACS analysis, as described in Example 4.

[5] = test system: MCF7 (human breast carcinoma); assay: Apoptosis by FACS, MCF7 cells; type: cell-based
Procedure: as §2, with “cytometry. Cells negative for both PI and annexin V staining (quadrant 3) represent live cells; PI-negative, annexin V-positive staining cells (quadrant 4) represent early apoptotic cells; PI-positive, annexin V-positive staining cells (quadrant 2) represent primarily cells in late stages of apoptosis.” for “cytometry.”
as §3

[6] = test system: U-937 (human hystiocytic lymphoma); assay: Apoptosis by FACS, U-937 cells; type: cell-based
Procedure: as §2, with “cytometry. Cells negative for both PI and annexin V staining (quadrant 3) represent live cells; PI-negative, annexin V-positive staining cells (quadrant 4) represent early apoptotic cells; PI-positive, annexin V-positive staining cells (quadrant 2) represent primarily cells in late stages of apoptosis.” for “cytometry.”
as §3

[7] = test system: A549 (human lung carcinoma); assay: Apoptosis by FACS, A549 cells; type: cell-based
Procedure: as §2, with “cytometry. Cells negative for both PI and annexin V staining (quadrant 3) represent live cells; PI-negative, annexin V-positive staining cells (quadrant 4) represent early apoptotic cells; PI-positive, annexin V-positive staining cells (quadrant 2) represent primarily cells in late stages of apoptosis.” for “cytometry.”
as §3

[8] = test system: ME-180 (human cervical carcinoma); assay: Apoptosis by FACS, ME-180 cells; type: cell-based
Procedure: as §2, with “cytometry. Cells negative for both PI and annexin V staining (quadrant 3) represent live cells; PI-negative, annexin V-positive staining cells (quadrant 4) represent early apoptotic cells; PI-positive, annexin V-positive staining cells (quadrant 2) represent primarily cells in late stages of apoptosis.” for “cytometry.”
as §3

[9] = test system: 293 (adenovirus-transformed human embryonic kidney cells); assay: Apoptosis by FACS, 293 cells; type: cell-based
Procedure: as §2, with “cytometry. Cells negative for both PI and annexin V staining (quadrant 3) represent live cells; PI-negative, annexin V-positive staining cells (quadrant 4) represent early apoptotic cells; PI-positive, annexin V-positive staining cells (quadrant 2) represent primarily cells in late stages of apoptosis.” for “cytometry.”
as §3

[10] = test system: peripheral blood B lymphocytes; assay: Apoptosis by FACS, peripheral blood B cells; type: cell-based, human; conditions: for % apoptotic cells: 3 days, Apo-2L 3 μg/ml, mean ±SE
Procedure: Peripheral blood mononuclear cells (“PBMC”) were isolated from the blood of human donors by Ficoll density gradient centrifugation using Lymphocyte Separation Medium (LSM®, Organon Teknika). An isolated population of T cells was prepared from the PBMC by removal of B cells through surface Ig binding to an anti-Ig column and removal of monocytes through Fc receptor binding to an Ig column (R & D Systems). An isolated population of B cells was prepared from the PBMC by complement-mediated elimination of T cells reacted with the anti-CD3 antibody produced by the OKT3 myeloma (ATCC, CRL 8001) and of monocytes reacted with a monocyte-specific antibody produced by the 4F2C13 hybridoma (ATCC, HB 22). Additional monocyte removal was accomplished by adherence to plastic.
The freshly isolated peripheral blood B or T cells (1×10^6 cells/well) were cultured for 3 days in the presence of a media control or Apo-2 ligand (3 μg/ml, prepared as described in Example 3). For activation, B cells were treated simultaneously with lipopolysaccharide ([…], 1 μg/ml), and T cells were treated with phorbol myristate acetate (“PMA”, 10 ng/ml) plus ionomycin (1 μg/ml) (Sigma). For interleukin-2 (“IL-2”) pretreatment, T cells were cultured for 3-5 days in the presence of IL-2 (50 U/ml) (Genzyme) before exposure to Apo-2 ligand. Apoptosis was determined using FACS analysis essentially as described above in Example 4. However, B cells were gated by anti-CD19/CD20 antibodies (Jackson Immunoresearch), and T cells were gated by anti-CD4/CD8 antibodies (Jackson Immunoresearch). The results are shown in Table 2 below, representing means ±SE of independent experiments [B lymphocytes—9 experiments; T lymphocytes—8 experiments; T lymphocytes plus IL-2-5 experiments], in which 50,000 cells were analyzed per data point. Statistical analysis was performed using the student t-test. In Table 2, a=p<0.05 and b=p<0.02 relative to the respective control.

[11] = test system: peripheral blood T lymphocytes; assay: Apoptosis by FACS, peripheral blood T cells; type: cell-based, human; conditions: for % apoptotic cells: Apo-2L 3 μg/ml, mean ±SE
Jurkat cells = assay: Internucleosomal DNA fragmentation, Jurkat cells; type: cell-based, human; conditions: 6 hours, Apo-2 ligand 3 μg/ml
Procedure: (§4) The activation of internucleosomal DNA fragmentation by Apo-2 ligand was also analyzed. Jurkat cells (left lanes) and 9D cells (right lanes) were incubated (2×10^6 cells/well) for 6 hours with a media control or Apo-2 ligand (3 μg/ml, prepared as described in Example 3), The DNA was then extracted from the cells and labeled with ^32P-ddATP using terminal transferase. The labeled DNA samples were subjected to electrophoresis on 2% agarose gels and later analyzed by autoradiography [Moore et al., Cytotechnology, 17:1-11 (1995)]. […] Such DNA fragmentation is characteristic of apoptosis [Cohen, Advances in Immunol., 50:55-85 (1991)].

9D cells [12] = assay: Internucleosomal DNA fragmentation, 9D cells; type: cell-based, human; conditions: 6 hours, Apo-2 ligand 3 μg/ml
Procedure: as §4

9D cells [13] = assay: Time course and dose-dependence of cell death (dead/live counts, hemocytometer), 9D cells; type: cell-based, human
Procedure: To examine the time-course of the Apo-2 ligand apoptotic activity, 9D cells were incubated in microtiter dishes (5×10^4 cells/well) with a media control or Apo-2 ligand (3 μg/ml, prepared as described in Example 3) for a period of time ranging from 0 hours to 50 hours. Following the incubation, the numbers of dead and live cells were determined by microscopic examination using a hemocytometer.
To determine dose-dependency of Apo-2 ligand-induced cell death, 9D cells were incubated (5×10^4 cells/well) for 24 hours with serial dilutions of a media control or Apo-2 ligand (prepared as described in Example 3). The numbers of dead and live cells following the incubation were determined as described above. The results are illustrated in FIG. 3B. Specific apoptosis was determined by subtracting the % apoptosis in the control from % apoptosis in Apo-2 ligand treated cells. Half-maximal activation of apoptosis occurred at approximately 0.1 μg/ml (approximately 1 nM), and maximal induction occurred at about 1 to about 3 μg/ml (approximately 10 to 30 nM).

[14] = Apo-2 ligand as compared to CH11 anti-Apo-1 antibody

Substance: Apo-2L: purified, soluble recombinant human Apo-2 ligand: His10-tagged residues 114-281 of SEQ ID NO:1, expressed in baculovirus-infected Sf9 cells (Example 3)
- % apoptotic cells ([1]; Apo-2L 3 μg/ml, control 22.5): 92.4%
- induction of apoptosis (annexin V binding, PI uptake), in words ([1]; Apo-2 ligand 3 μg/ml): induced apoptosis
- % apoptotic cells ([2]; Apo-2L 3 μg/ml, control 35.9): 73.4%
- induction of apoptosis (annexin V binding, PI uptake), in words ([2]; Apo-2 ligand 3 μg/ml): induced a similar response
- % apoptotic cells ([3]; Apo-2L 3 μg/ml, control 5.9): 77.0%
- induction of apoptosis (annexin V binding, PI uptake), in words ([3]; Apo-2 ligand 3 μg/ml): induced a similar response
- % apoptotic cells ([4]; 24 hours, Apo-2L 3 μg/ml, CH11 1 μg/ml, control 5.3): 18.6%
- sensitivity to induction of apoptosis [4, 14]: equally sensitive
- % apoptotic cells ([5]; 24 hours, Apo-2L 3 μg/ml, CH11 1 μg/ml, control 39.9): 47.3%
- sensitivity to induction of apoptosis [5, 14]: equally sensitive
- % apoptotic cells ([6]; 24 hours, Apo-2L 3 μg/ml, CH11 1 μg/ml, control 3.6): 62.3%
- sensitivity to induction of apoptosis [6, 14]: markedly more sensitive
- % apoptotic cells ([7]; 24 hours, Apo-2L 3 μg/ml, CH11 1 μg/ml, control 16.5): 74.6%
- sensitivity to induction of apoptosis [7, 14]: markedly more sensitive
- sensitivity to induction of apoptosis [8]: quite sensitive
- % apoptotic cells ([8]; 24 hours, Apo-2L 3 μg/ml, CH11 1 μg/ml, control 8.6): 80.7%
- sensitivity to induction of apoptosis [9]: resistant
- % apoptotic cells ([9]; 24 hours, Apo-2L 3 μg/ml, CH11 1 μg/ml, control 12.3): 12.2%
- induction of apoptosis, in words ([10]; B cells activated by LPS): induced significant apoptosis
- % apoptotic cells ([10]; B lymphocytes + LPS 1 μg/ml, control 44.8 ± 2.8): 55.9%
- % apoptotic cells ([10]; B lymphocytes, no treatment, 9 experiments, control 40.1 ± 4.1): 53.2%
- induction of apoptosis, in words ([10]; unstimulated B cells): induced significant apoptosis
- induction of apoptosis, in words ([11]; T cells activated with PMA and ionomycin): induced significant apoptosis
- % apoptotic cells ([11]; T lymphocytes + PMA 10 ng/ml / ionomycin 1 μg/ml, 3 days, control 40.3 ± 4.4): 54.2%
- % apoptotic cells ([11]; T lymphocytes, IL-2 (50 U/ml, 3-5 days) pretreatment, 5 experiments, control 13.7 ± 1.2): 34.5%
- % apoptotic cells ([11]; T lymphocytes, no treatment, 3 days, 8 experiments, control 6.3 ± 0.6): 8.2 ± 0.8%
- sensitization to Apo-2 ligand-induced death, in words ([11]; peripheral T cells pretreated with IL-2): did sensitize
- internucleosomal DNA fragmentation (Jurkat cells): induced internucleosomal DNA fragmentation
- internucleosomal DNA fragmentation (9D cells [12]): induced internucleosomal DNA fragmentation
- half-maximal activation of apoptosis (9D cells [13]; 24 hours, specific apoptosis (control subtracted)): approximately 0.1 μg/ml
- pEC50 (9D cells [13]; 24 hours, specific apoptosis (control subtracted), read-out: half-maximal activation of apoptosis): ~9.00
- time to maximal levels of cell death (9D cells [13]; Apo-2 ligand 3 μg/ml, 0 to 50 hours): ≤ 24 h

Source: patent publication US6746668B2, “Apo-2 ligand” (Genentech, Inc., priority 1996, dated 2004)
